Results on one compound are retold here after patent publication US20020148008A1, “Gene which regulates the dormancy of wheat seed” (priority 2000, published 2002).

Experiment in all cases: Abscisic acid-sensitivity of seed embryo (seeds cut in halves, sprouting and sprout stretching)
Common to all, as to assay type: in vivo

In assay [1] the test system is Minaminokomugi wheat seeds (strong dormancy). The procedure: (§1) Next, seeds obtained from 3 varieties Minaminokomugi, Sanin 1 and Tozan 18) and seeds in which dormancy has been disrupted (Minaminokomugi, Sanin 1) were soaked individually in 5% (W/V) Benlate T(DuPont, USA) for 10 minutes, then sterilized by washing with distilled water. The grains of these wheat seeds were cut in halves to be laid in pet dish. A section where 8 mL of abscisic acid (ABA) solution was added and a section where 8 mL of distilled water was added were produced for each seed, followed by culturing at 22° C. for 6 days to determine the sprouting rate and the degree of sprout stretching.

Assay [2] deals with Minaminokomugi wheat seeds (the dormancy has been disrupted). The procedure:
as §1

Assay [3] relates to Sanin 1 wheat seeds (the dormancy has been disrupted). The procedure:
as §1

Assay [4] has as its system Sanin 1 wheat seeds (weak dormancy). The procedure:
as §1

The subject of assay [5] is Tozan 18 wheat seeds (weak dormancy). The procedure: as §1

The structures appear in SMILES notation.

For the compound `CC1=CC(=O)CC(C)(C)[C@@]1(O)/C=C/C(C)=C\C(=O)O` [ABA, abscisic acid], the “Sprouting Rate (%)” value is given as 0% in assay [1] (Minaminokomugi, seeds cut in halves, + 10 μM ABA, 22° C., 6 days); 70% in assay [2] (Minaminokomugi (dormancy disrupted), seeds cut in halves, + 10 μM ABA, 22° C., 6 days); 100% in assay [3] (Sanin 1 (dormancy disrupted), seeds cut in halves, + 10 μM ABA, 22° C., 6 days); 100% in assay [4] (Sanin 1, seeds cut in halves, + 10 μM ABA, 22° C., 6 days); 100% in assay [5] (Tozan 18, seeds cut in halves, + 10 μM ABA, 22° C., 6 days). Also, the abscisic acid-sensitivity result in assay [1] (seed of Minaminokomugi with strong dormancy) was “strong abscisic acid-sensitivity”; in assay [2] (seeds of Minaminokomugi in which dormancy has been disrupted), “weak abscisic acid-sensitivity or insensitivity”; in assay [3] (seeds of Sanin 1 in which dormancy has been disrupted), “weak abscisic acid-sensitivity or insensitivity”; in assay [4] (seeds of Sanin 1 with weak dormancy), “weak abscisic acid-sensitivity or insensitivity”; in assay [5] (seeds of Tozan 18 with weak dormancy), “weak abscisic acid-sensitivity or insensitivity”.
